Test results: publication PMC9101087, “A Sensitive LC-MS/MS Method for the Simultaneous Determination of Two Thia-Analogous Indirubin N-Glycosides and Indirubin-3′-Monoxime in Plasma and Cell Culture Medium” (Molecules, 2022)

Tests used:
[1] = Storage stability in human plasma, LC-MS/MS after plasma precipitation; assay type: in vitro ADME; settings: long-term freezing
A375 (melanoma) = test: WST-1 cell viability assay, 48-h incubation; assay type: cell-based, human; settings: A375, WST-1, 48 h, vs. vehicle; even at 3 µM in some (unnamed) cell lines
Description: (§1) To test the biological activity of the thia-analogous indirubin N-glycosides that are the focus of the present work, the effects of KD87 and KD85 and their non-glycosylated parent compound KD88 on the viability of various tumor cell lines were initially investigated. The corresponding analyses were performed using the cell lines A375 (melanoma), A431 (skin squamous cell carcinoma), A549 (non-small cell lung carcinoma), U251MG (glioblastoma), and U138MG (glioblastoma).
(§2) Figure 2 Effect of increasing concentrations of KD87 (A), KD85 (B), and KD88 (C) on viability of various cancer cells. A375 (melanoma; black columns), A431 (skin squamous cell carcinoma; dark grey columns), A549 (non-small cell lung carcinoma; grey columns), U251MG (glioblastoma; light grey columns), or U138MG (glioblastoma; white columns) were incubated for 48 h with the appropriate compounds or vehicle followed by determination of cell viability by WST-1 assay. Percent control represents comparison with vehicle-treated cells (100%) in the absence of test substance. Values are mean ± standard error of the mean (SEM) of n = 15 in all panels, except n = 14 for A375 and A431 cells in panel B and n = 14–15 for A375 cells in panel C, from four (A375, A431) or five (A549, U251MG, U138MG) independent experiments. * p ≤ 0.05, ** p ≤ 0.01, *** p ≤ 0.001, **** p ≤ 0.0001 vs. vehicle control; one-way ANOVA with Dunnett’s post hoc test.
(§3) The human melanoma cell line A375 (#300110; RRID:CVCL_0132) as well as the human skin epidermoid carcinoma cell line A431 (#300112; RRID:CVCL_0037) were purchased from CLS Cell Lines Service GmbH (Eppelheim, Germany). The human glioblastoma cell line U251MG (#09063001; RRID:CVCL_0021) was from Sigma-Aldrich Corporation. The human glioblastoma cell line U138MG (#ACC 291; RRID: CVCL_0020) and the human lung carcinoma cell line A549 (#ACC 107, RRID:CVCL_0023) were purchased from DSMZ (Deutsche Sammlung von Mikroorganismen und Zellkulturen GmbH, Braunschweig, Germany).
(§4) Cells were cultured in high-glucose DMEM (with GlutaMAX™-I: A375, A431; with UltraGlutamine^TM I: A549, U251MG, U138MG) supplemented with 10% heat-inactivated FBS, 100 U/mL penicillin, and 100 μg/mL streptomycin and grown in a humidified incubator at 37 °C and 5% CO2. For viability analyses, cells were seeded in 96-well plates at a density of 5000 cells per well in DMEM containing 10% heat-inactivated FBS and cultured for 24 h. All cell experiments with the specific substances were performed in serum-free DMEM supplemented with 100 U/mL penicillin and 100 μg/mL streptomycin, applied after washing the cells with DPBS. The test substances were dissolved in DMSO. The final concentration of DMSO in the incubation media of test substance- and vehicle-treated cells was 1% (v/v).
(§5) After completion of the 48-h incubation, WST-1 reagent (Sigma, Taufkirchen, Germany) was added to the cells to achieve a final dilution of 1:10, and the cells were incubated for an additional 20 min before absorbance was measured at 450 nm, reference wavelength […], using a microplate reader.

[2] = test system: A549 (non-small cell lung carcinoma); test: WST-1 cell viability assay, 48-h incubation; assay type: cell-based, human; settings: A549, WST-1, 48 h, vs. vehicle; even at 3 µM in some (unnamed) cell lines
Description: as §1, §2, §3, §4, §5

U138MG (glioblastoma) = test: WST-1 cell viability assay, 48-h incubation; assay type: cell-based, human; settings: WST-1, 48 h, vs. vehicle, even at 3 µM in some (unnamed) cell lines
Description: as §1, §2, §3, §4, §5

[3] = test system: A431 (skin squamous cell carcinoma); test: WST-1 cell viability assay, 48-h incubation; assay type: cell-based, human; settings: A431, WST-1, 48 h, vs. vehicle; even at 3 µM in some (unnamed) cell lines
Description: as §1, §2, §3, §4, §5

[4] = Storage stability in human plasma, LC-MS/MS after plasma extraction; assay type: in vitro ADME; settings: for Stability 4 °C / Stability AS (autosampler) / Stability −20 °C / Stability BT (benchtop): 24 h; for Stability FT (freeze-thaw): freeze-thaw cycles; for Stability −80 °C 90 d: long-term freezing; for Stability BT (benchtop): room temperature
Description: To assess stability, low and high concentrations of all analytes were subjected to different storage conditions. […] For determination of long-term stability, samples were stored in either plasma or DMEM at –80 °C for 90 and 91 days, respectively. To measure short-term stability, samples were stored at room temperature, in an autosampler, at 4 °C, and at –20 °C for 24 h. In addition, freeze-thaw cycles were performed according to FDA guidance for the standard solutions. For comparison, at least three freshly prepared samples were prepared for each concentration level. With the exception of autosampler stability, the internal standard was always added to all samples before sample processing was started.
Liquid-liquid extraction was performed identically for plasma and DMEM samples. After addition of the 1.0 µM internal standard, 50 µL of 0.8 M alkaline carbonate buffer was added. The extraction was performed once with 890 µL ethyl acetate. Tubes were then shaken for 10 min at 1400 rpm using a Thermomixer 5436 (Eppendorf AG, Hamburg, Germany) followed by centrifugation for 5 min at 14,000 rpm using a Centrifuge 5415 C (Eppendorf AG, Hamburg, Germany). Subsequently, 850 µL of the supernatant was transferred to a new tube and evaporated to dryness for 35 min at 35 °C (8 min heating time) using a SpeedVac SPD130DLX (Thermo Fisher Scientific, Asheville, NC, USA). Reconstitution was performed with 200 µL of a acetonitrile/water/H2SO4 [3/0.5/0.5] mixture, shaken at 1400 rpm for 5 min, and centrifuged again at 14,000 rpm for 5 min. Finally, 155 µL of the sample was transferred to an LC vial and analyzed.
To assess stability, low and high concentrations of all analytes were exposed to different storage conditions. To determine long-term stability, samples were stored in either plasma or DMEM at −80 °C for 90 and 91 days, respectively. To determine short-term stability, samples were stored for 24 h on the bench at room temperature, in the autosampler, at 4 °C, and at −20 °C. In addition, freeze-thaw cycles were performed for the standard solutions according to FDA guidance. At least three freshly prepared samples per concentration level were prepared for comparison. With the exception of the stability test in the autosampler, the internal standard was always added to all samples before sample processing was started. However, to avoid concentration fluctuations due to possible degradation of the analytes, stock solutions were prepared twice a week and stored at −20 °C. Each storage condition was examined in the dark. For all conditions studied, n = 3–6 replicates were prepared.

Stability −80 °C 91 d ([1]; 2.0 nM) | Stability −80 °C 91 d ([1]; 167 nM) | Stability 4 °C ([4]; 3.0 nM) | Stability AS (autosampler) ([4]; 3.0 nM) | Stability −20 °C ([4]; 3.0 nM) | Stability FT (freeze-thaw) ([4]; 3.0 nM) | Stability −80 °C 90 d ([4]; 3.0 nM) | Stability BT (benchtop) ([4]; 3.0 nM) | Stability 4 °C ([4]; 250 nM) | Stability AS (autosampler) ([4]; 250 nM) | Stability −20 °C ([4]; 250 nM) | Stability FT (freeze-thaw) ([4]; 250 nM) | Stability −80 °C 90 d ([4]; 250 nM) | Stability BT (benchtop) ([4]; 250 nM) | SMILES | concentration from which significant cytotoxic effects start (A375 (melanoma)) | concentration from which significant cytotoxic effects start [2] | concentration from which significant cytotoxic effects start (U138MG (glioblastoma)) | concentration from which significant cytotoxic effects start [3]
105.1 ± 12.4% | 108.2 ± 3.7% | 85.5 ± 2.2% | 71.8 ± 2.7% | 86.4 ± 3.5% | 99.4 ± 4.0% | 102.5 ± 5.2% | 64.4 ± 3.6% | 94.3 ± 5.7% | 73.1 ± 2.7% | 101.8 ± 3.2% | 99.1 ± 2.0% | 101.7 ± 1.1% | 76.0 ± 2.6% | O=C1/C(=C2/C(=O)N([C@@H]3O[C@H](CO)[C@@H](O)[C@H](O)[C@@H]3O)c3ccccc32)Sc2ccccc21 [KD85, 3-[3′-oxo-benzo[b]thiophene-2′-(Z)-ylidene]-1-(β-D-mannopyranosyl)-oxindole] | ≤ 6 µM | ≤ 6 µM | ≤ 6 µM | ≤ 6 µM
96.7 ± 8.6% | 106.0 ± 1.4% | 79.3 ± 2.4% | 80.8 ± 3.0% | 101.4 ± 3.4% | 98.3 ± 5.4% | 100.1 ± 8.4% | 64.4 ± 4.6% | 94.1 ± 5.6% | 73.7 ± 3.3% | 100.1 ± 0.7% | 99.7 ± 2.6% | 100.9 ± 3.6% | 77.8 ± 2.7% | O=C1/C(=C2/C(=O)N([C@@H]3O[C@H](CO)[C@@H](O)[C@H](O)[C@H]3O)c3ccccc32)Sc2ccccc21 [KD87, 3-[3′-oxo-benzo[b]thiophen-2′-(Z)-ylidene]-1-(β-D-glucopyranosyl)-oxindole] | ≤ 6 µM | ≤ 6 µM | ≤ 6 µM | ≤ 6 µM
